One assay addresses T1, human MR (Homo sapiens, UniProt P08235).
T1 construct: The full length human MR gene is cloned from a human kidney or human brain cDNA library; made in house; host or cells: Sf9 insect cells (baculovirus, pAcHLT transfer vector)
T1 sequence (P08235 1-984): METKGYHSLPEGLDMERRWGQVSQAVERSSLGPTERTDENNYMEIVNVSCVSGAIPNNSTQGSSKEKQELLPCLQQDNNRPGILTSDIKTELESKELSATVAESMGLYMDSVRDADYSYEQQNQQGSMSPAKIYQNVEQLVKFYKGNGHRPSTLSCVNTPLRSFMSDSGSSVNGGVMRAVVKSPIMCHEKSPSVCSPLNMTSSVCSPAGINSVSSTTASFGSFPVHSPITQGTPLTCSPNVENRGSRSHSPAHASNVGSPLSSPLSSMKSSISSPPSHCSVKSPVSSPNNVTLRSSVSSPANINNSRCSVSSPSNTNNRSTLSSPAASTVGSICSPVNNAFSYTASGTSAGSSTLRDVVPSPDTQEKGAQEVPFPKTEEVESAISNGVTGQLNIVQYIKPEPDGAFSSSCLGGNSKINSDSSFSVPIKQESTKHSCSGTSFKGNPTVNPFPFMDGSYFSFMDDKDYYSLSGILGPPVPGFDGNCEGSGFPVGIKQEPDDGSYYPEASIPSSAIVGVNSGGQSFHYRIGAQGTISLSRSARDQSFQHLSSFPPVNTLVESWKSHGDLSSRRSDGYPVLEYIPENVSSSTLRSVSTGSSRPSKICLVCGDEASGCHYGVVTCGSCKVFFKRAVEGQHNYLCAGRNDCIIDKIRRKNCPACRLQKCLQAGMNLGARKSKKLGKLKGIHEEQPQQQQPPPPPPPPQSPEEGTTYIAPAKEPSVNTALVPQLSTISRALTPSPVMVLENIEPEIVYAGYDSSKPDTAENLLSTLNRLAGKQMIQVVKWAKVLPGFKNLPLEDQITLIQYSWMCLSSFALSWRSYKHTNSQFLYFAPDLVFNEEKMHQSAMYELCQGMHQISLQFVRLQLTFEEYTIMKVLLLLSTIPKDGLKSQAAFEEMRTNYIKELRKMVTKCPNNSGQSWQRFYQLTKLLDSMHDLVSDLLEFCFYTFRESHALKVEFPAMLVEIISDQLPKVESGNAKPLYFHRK
Kind of assay: Mineralocorticoid Receptor Binding Assay ([3H]-aldosterone displacement). The following applies: full length human MR expressed in Sf9 cells, 0.5 nM [3H]-aldosterone. The protocol: Mineralocorticoid Receptor Binding Assay:
The full length human MR gene is cloned from a human kidney or human brain cDNA library. Briefly, using synthetic oligonucleotide primers (Eli Lilly and Company, Indianapolis) directed to nucleotides 20-54 and 3700-3666 of the human MR, polymerase chain reaction (PCR) is performed under standard conditions using a human cDNA library. The PCR reaction is performed in a final volume of 50 μl containing about 1 μl of a 50× stock solution of polymerase; about 1 μl of a 50× stock solution of dNTP; about 5 μl of an appropriate PCR buffer; about 1 μl of each primer; about 5 μl of a H. kidney or H. brain cDNA library; and about 36 μl of water. The reaction is allowed to denature for about 30 seconds at 95 degrees Celsius, anneal for about 30 seconds at 55 degrees Celsius, and extend for about 5 minutes at 72 degrees Celsius, the sequence being repeated for a total of about 35 cycles. The desired PCR product (3.68 Kb) is confirmed by gel electrophoresis and subsequently cut from the gel and stored at about −20 degrees Celsius until extraction. To extract the cDNA product from the agarose gel, the QIAEX II Gel Extraction protocol (QIAGEN, Inc.) is employed according to the manufacturer's instructions. Following extraction, the MR cDNA is cloned into an appropriate cloning vector (Zero Blunt TOPO PCR Cloning Kit (Invitrogen, Inc.) and a pAcHLT-baculovirus transfer vector (B.D./Pharminogen), then expressed in SF9 insect cells, essentially according to manufacturer's instructions. Sf9 cells are grown at a scale where gram quantity cell pellets are obtained for subsequent use in the MR binding assay. Harvested cell pellets are lysed by repeated freeze-thaw cycles (about 4) in a suitable lysis buffer then centrifuged at about 1×10^3 G (with the supernatant being saved for future assays).
MR binding assays are performed in a final total volume of about 250 μl containing about 20-25 μg of protein and 0.5 nM of [^3H]-aldosterone plus varying concentrations of test compound or vehicle. The assay binding buffer consists of 30 mM sodium molybdate, 30 mM of TRIS-HCl, 5 mM sodium phosphate, 5 mM sodium pyrophosphate, and about 10% glycerol, pH=7.5.
Briefly, assays are prepared at RT in 96-well Falcon 3072 plates, each well containing 210 μl of binding buffer, 10 μl of [^3H]-aldosterone, 10 μl of test compound/vehicle, and 20 μl of the resuspended receptor protein extract. Incubations are carried out at 4 degrees Celsius with shaking for about 16 hours. 200 μl aliquots of each incubation are filtered onto Millipore HA 0.45 micron 96-well filter plates, pre-moistened with cold 30 mM TRIS-HCl. The filter plates are suctioned dry with vacuum and immediately washed 3× with cold 30 mM TRIS-HCl. The plates are then punched out and the amount of receptor-ligand complex is determined by liquid scintillation counting using 4 ml of Ready Protein Plus™ liquid scintillation cocktail.
IC50 values (defined as the concentration of test compound required to decrease [^3H]-aldosterone binding by 50%) are then determined. Ki values for each respective test compound can then be calculated by application of the Cheng-Prusoff equation as described in Cheng et al., Relationship Between The Inhibition Constant (Ki) and The Concentration of Inhibitor Which Causes 50% Inhibition (IC50) of an Enzymatic Reaction, Biochem. Pharmacol., 22: 3099-31088; (1973).

The conditions of assay [1]: in combination with standard CHF therapy, patients suffering from advanced CHF; cited from earlier work.

Structures are written as SMILES. Where only a bound is given, the exact number is not on record here.

As for `Cc1cc(C2(c3cc(C)c(O)c(C)c3)C(=O)N(Cc3ccc4ccccc4c3)c3ccccc32)cc(C)c1O` [Example 59, 3,3-Bis-(4-hydroxy-3,5-dimethyl-phenyl)-1-naphthalen-2-ylmethyl-1,3-dihydro-indol-2-one], the inhibitory constant (Ki) (in general, a dissociation constant, usually derived from enzyme kinetics or from competition with a known ligand) on human MR was no more than 500 nM.
In the case of `Cc1cc(C2(c3cc(C)c(O)c(C)c3)C(=O)N(CCc3ccccn3)c3ccccc32)cc(C)c1O` [Example 122, 3,3-Bis-(4-hydroxy-3,5-dimethyl-phenyl)-1-(2-pyridin-2-yl-ethyl)-1,3-dihydro-indol-2-one], the Ki at human MR is no more than 500 nM.
As for `Cc1cc(C2(c3cc(C)c(O)c(C)c3)C(=O)N(Cc3cccnc3)c3ccccc32)cc(C)c1O` [Example 103, 3,3-Bis-(4-hydroxy-3,5-dimethyl-phenyl)-1-pyridin-3-ylmethyl-1,3-dihydro-indol-2-one], the Ki on human MR was no more than 500 nM.
In turn, `C=CCN1C(=O)C(c2cc(C)c(O)c(C)c2)(c2cc(C)c(O)c(C)c2)c2ccccc21` [Example 104, 1-Allyl-3,3-bis-(4-hydroxy-3,5-dimethyl-phenyl)-1,3-dihydro-indol-2-one] came in with a Ki on human MR of no more than 500 nM.
Same read-out and setting: the result for `Cc1cc(C2(c3cc(C)c(O)c(C)c3)C(=O)N(Cc3ccc(C(=O)c4ccccc4)cc3)c3ccccc32)cc(C)c1O` [Example 71, 1-(4-Benzoyl-benzyl)-3,3-bis-(4-hydroxy-3,5-dimethyl-phenyl)-1,3-dihydro-indol-2-one] reads no more than 500 nM; that for `Cc1cc(C2(c3cc(C)c(O)c(C)c3)C(=O)N(CC(=O)NC3CCCCC3)c3ccccc32)cc(C)c1O` [Example 96, 2-[3,3-Bis-(4-hydroxy-3,5-dimethyl-phenyl)-2-oxo-2,3-dihydro-indol-1-yl]-N-cyclohexyl-acetamide], no more than 500 nM.
For `CC(=O)S[C@@H]1CC2=CC(=O)CC[C@]2(C)[C@H]2CC[C@@]3(C)[C@@H](CC[C@@]34CCC(=O)O4)[C@H]12` [spironolactone], in assay [1], the “reduced cardiac related mortality” value was 30% and the “reduced frequency of hospitalization” value was 35%.

Values taken from patent US7250442B2, “Dihydroindol-2-one derivatives as steroid hormone nuclear receptor modulators” (Eli Lilly and Company, priority 2003, dated 2007).
